{"source": "paper PMC3831706", "about": "(British Journal of Pharmacology, 2013)", "target": "T1, 5-HT3A receptor (Homo sapiens, UniProt P46098)", "T1 construct": "gene HTR3A", "T1 sequence (P46098 24-478)": "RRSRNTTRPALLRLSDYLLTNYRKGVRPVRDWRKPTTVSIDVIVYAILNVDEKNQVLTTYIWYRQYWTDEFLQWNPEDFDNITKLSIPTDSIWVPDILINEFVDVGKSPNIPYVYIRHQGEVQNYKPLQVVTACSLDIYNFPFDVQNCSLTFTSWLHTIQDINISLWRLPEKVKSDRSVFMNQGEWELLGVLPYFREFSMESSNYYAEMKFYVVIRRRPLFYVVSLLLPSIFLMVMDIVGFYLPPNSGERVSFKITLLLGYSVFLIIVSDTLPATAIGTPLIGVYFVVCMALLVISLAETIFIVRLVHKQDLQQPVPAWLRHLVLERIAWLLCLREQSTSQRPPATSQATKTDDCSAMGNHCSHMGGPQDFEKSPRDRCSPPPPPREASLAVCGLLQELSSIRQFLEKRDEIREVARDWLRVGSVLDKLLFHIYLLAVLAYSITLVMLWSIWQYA", "test": "cell-based"}
{"compound": "O=C1c2cccc3c2[C@H](CCC3)CN1[C@@H]1CN2CCC1CC2", "note": "[PAL, palonosetron]", "values": [{"measurement": "Ki", "result": "220 ± 70", "unit": "pM"}]}
